Consider two compounds from patent publication US9902934B2, “Human keratinocytes PTCH1 cell line” (GALDERMA RESEARCH & DEVELOPMENT, priority 2011, dated 2018).

For test [1], the system named is SHH/PTCH pathway. Briefly: Activation of PTCH1-luciferase reporter activity in SK PTCH1-Luc E6/E7 keratinocytes. Type of test: cell-based, human. The conditions noted are these: SK PTCH1-Luc E6/E7 cells, cultured 24 hours. On the procedure: (§1) Purmorphamine (SMO agonist) and GDC-0449 (SMO antagonist) were diluted in DMSO at stock concentrations of 50 mM and 10 mM, respectively. To avoid side effects and toxicity, the final concentration of DMSO was fixed to 0.1% DMSO.
(§2) Lysis buffer and luciferase reagents were from the Steady-Glo® Luciferase Assay System kit (Promega, #E2520). Plates were read on a […] (TopCount, Perkin Elmer).
(§3) Experimental conditions of activation using SMO agonist of the PTCH1-Luc-E6 E7 reporter cells were first set up for optimisation. The SK PTCH1-Luc E6/E7 cells were plated in 96-well at various densities (5000 to 50000 cells/well) in opaque plates (Greiner, ref: 655083). In parallel, in order to follow cell growth, confluency, and lysis, the cell line was also seeded in transparent 96 wells plates (Greiner 655098). Serial dilutions of purmorphamine were prepared (0.2 nM<Conc.<50 μM). Results were matched with EC50 and IC50 values obtained in the SHH-Light II cell line.
Once experimental conditions optimized, SK PTCH1-Luc E6/E7 cells were plated at 45.000 cells per well, culture for 24 hours then treated for 48 hours by serial dilutions of purmorphamine. Each condition was done in duplicate and the experiment was performed at least twice. SK PTCH1-Luc E6/E7 cells responded to activation of the SHH/PTCH pathway when treated with purmorphamine and the EC50 value was determined at 1 μM (FIG. 3).
Background: Reporter assays use an easily measured gene product as a stand-in for the process of interest.

The test system of test [2] is SHH/PTCH pathway. Briefly: Inhibition of purmorphamine-induced luciferase activity in SK PTCH1-Luc E6/E7 keratinocytes. Type of test: cell-based. The note with it: Homo sapiens, Keratinocyte, SK PTCH1-Luc E6/E7 cells, co-treatment 48 hours with 2.5 μM purmorphamine (EC80). On the procedure:
as §1, §2, §3
Co-treatment of SK PTCH1-Luc E6/E7 cells with purmorphamine and GDC-0449 led to the inhibition of the luciferase activity (FIG. 5). Under these circumstances, the IC50 of GDC-0449 was determined at 0.2 μM.

pEC50, pIC50: −log10 of the molar value.

By pEC50 is commonly meant the EC50 on a negative log10 scale, so that one unit is a factor of ten. Read a high pEC50 as a small EC50. By pIC50 is commonly meant −log10 of the IC50, conventionally taken in molar units.

Consider `c1ccc2c(Oc3nc(Nc4ccc(N5CCOCC5)cc4)c4ncn(C5CCCCC5)c4n3)cccc2c1` [purmorphamine, Purmorphamine], for which, in the test with SHH/PTCH pathway [1] (Homo sapiens, Keratinocyte, 45.000 cells per well, treated 48 hours), the pEC50 is 6.00. In addition, in the test with SHH/PTCH pathway [1] (45.000 cells/well, treated 48 hrs), the “effective concentration for 80% activation (EC80)” value came to 2.5 µM.

Consider `CS(=O)(=O)c1ccc(C(=O)Nc2ccc(Cl)c(-c3ccccn3)c2)c(Cl)c1` [GDC-0449], for which the pIC50 in the test on SHH/PTCH pathway [2] was 6.70.
